row,SMILES,melting point
1,O=C(CCl)Nc1ccc(Cl)cc1C(=O)c1ccccc1Cl,161 to 163 °C
2,O=[N+]([O-])c1ccc(Cl)c(C(F)(F)F)c1,22 °C
3,CCCCCCCCOC(C)=O,-38.5 °C
4,CC(C)C(=O)NN,97 to 100 °C
5,Cc1ccc2[nH]c(C)c(C)c2c1,122 °C
6,Cc1cc(C)c(CS)c(C)c1,47 °C
7,CCCCCCCCCCCCCCCCCCCCCC(=O)OC,54 °C
8,Cc1nn(C)c(Cl)c1C(=O)O,195 to 198 °C
9,BrCc1ccc(-n2cccn2)cc1,81 to 83 °C
10,Cc1ccc(S(=O)(=O)N(Cl)Cl)cc1,83 °C
11,O=Cc1csc(-c2cccc(Cl)c2)n1,103 to 104 °C
12,CCCCCCC(O)CCCCC (configuration not stated),30 °C
13,CC12CCC3C(CCC4CC5SC5CC43C)C1CCC2O (configuration not stated),127 °C
14,COc1cc(C(C)(C)C)c(O)c(C(C)(C)C)c1,105 °C
15,CCC(=O)OC1CCC2(C)C(=CCC3C2CCC2(C)C(OC(=O)CC)CCC32)C1 (configuration not stated),113 °C
16,CC1(C)OC(C(O)CO)C(C(O)CO)O1 (configuration not stated),87 °C
17,Cc1ccc(-n2c(C)nc3cc([N+](=O)[O-])ccc32)cc1,152 °C
18,CCCCOC(=O)c1ccccc1C(=O)O,73.5 °C
19,CCCCCCCCC(=O)OCCCCC,-27 °C
20,CN(CC(=O)O)CC(=O)O,218 to 221 °C
21,Cc1ccc2c(c1)C(=O)c1cc(C)ccc1C2=O,163 °C

row,SMILES,melting point
1,CCCCCC(=O)OCCCC,-64.3 °C
2,Cc1ccc(C=NC2=NC(C(F)(F)F)N=N2)cc1 (configuration not stated),208 °C
3,CCS(=O)(=O)O,-17 °C
4,O=C(C1CCCNC1)N1CCCC1 (configuration not stated),57 to 64 °C
5,O=C1N[C@H]2CC[C@@H]1C2,76.2 °C
6,CC1CC(=O)OC(=O)C1,40 to 45 °C
7,Cn1ccc2cc(C=O)ccc21,84 to 86 °C
8,CN1CCN(c2ccc(CO)cc2)CC1,118 to 119 °C
9,O=[N+]([O-])c1ccc(Nc2ccccc2)cc1,135 °C
10,CN1C2CCC1C(C(=O)O)C(O)C2 (configuration not stated),205 °C
11,C/C(CCc1oc2ccc(Cl)cc2c1-c1ccc(C)o1)=N/O,114 to 115 °C
12,N#Cc1ccc(Cl)c(C(F)(F)F)c1,66 °C
13,O=[N+]([O-])c1ccc(-c2nnc(NC3=NCCN3)s2)cc1,239 to 241 °C
14,O=Cc1c(Sc2ccc(Cl)cc2)nc2sccn12,139 to 141 °C
15,COP(=O)(OC)OC(=CCl)c1ccc(Cl)cc1Cl,69.5 °C
16,CCCOC1CCC2C3CCC4=CC(=O)CCC4(C)C3CCC12C (configuration not stated),117 to 119 °C
17,CCCCCCCCN(C)CCCCCCCC,-30.1 °C
18,c1cnc2nccnc2c1,143 °C
19,CCCCCCCCCCCCCCCC(=O)OCCC,20.4 °C
20,O=C(NC(=O)c1c(F)cccc1F)Nc1cc(Cl)c(OC(F)(F)C(F)F)c(Cl)c1,204 °C
21,Brc1cccs1,-10 °C

row,SMILES,melting point
1,CCCCCCCC(N)P(=O)(O)O (configuration not stated),269 to 270 °C
2,COc1ccc2c(c1OC)C(=O)OC2C1c2cc3c(cc2CCN1C)OCO3 (configuration not stated),132 °C
3,COC(=O)C(C#N)=Cc1cc(Br)c(O)c(OC)c1,200 °C
4,O=C1C2CC3CC(C2)CC1C3,286 °C
5,CCOC(=O)C=CN(C)C,17.5 °C
6,Fc1cccc2cc[nH]c12,62 °C
7,O=S(=O)(Cl)c1ccc(C(F)(F)F)cc1,31 °C
8,O=C(O)CCCOc1ccc(Cl)cc1Cl,118 °C
9,Nc1nc(S)nc2[nH]ncc12,300 °C
10,CCCCCCCCCCCCCC(=O)CC,43 °C
11,Ic1ncc[nH]1,191 °C
12,Cn1nc(C(F)(F)F)cc1-c1ccc(S(=O)(=O)Cl)s1,68 to 70 °C
13,CCCCCCCCCCCC1CCCC1,-10 °C
14,CCCCCCCCCCCCCCCC(=O)Oc1ccc(N=Cc2cccnc2)cc1,87.6 °C
15,CC(=O)Oc1cccc(C#N)c1,60 °C
16,Nc1cc(C(F)(F)F)c(Br)cc1F,36 °C
17,NS(=O)(=O)c1ccc(-c2ccc(C=O)o2)cc1,199 to 201 °C
18,O=C1Nc2ccc([N+](=O)[O-])cc2C1=O,251 °C
19,CCNC(C)Cc1cccc(C(F)(F)F)c1 (configuration not stated),110 °C
20,C#CC1(O)CCC2C3CCC4=CC(=O)CCC4=C3C=CC21C (configuration not stated),169 °C
21,Cc1nn(C)c(Cl)c1S(=O)(=O)O,308 to 310 °C

# The next lines start with the values.
row,melting point,SMILES
1,295 °C,CC(C)(C)CC(=O)OCC(=O)C12OC(C)(C)OC1CC1C3CCC4=CC(=O)C=CC4(C)C3(F)C(O)CC12C (configuration not stated)
2,283 to 284 °C,O=C1C(=CC2C(=O)N(c3ccccc3)N=C2c2ccc([N+](=O)[O-])cc2)C(c2ccc([N+](=O)[O-])cc2)=NN1c1ccccc1 (configuration not stated)
3,125 to 129 °C,O=CC=Cc1ccccc1[N+](=O)[O-]
4,91.5 °C,CCCCNC(=O)c1ccc(Cl)cc1O
5,151 to 152 °C,O=C1C2ON(c3ccccc3)C(c3ccccc3)C2C(=O)N1c1ccccc1 (configuration not stated)
6,102 to 103 °C,CC(=O)NC(C)c1ccccc1 (configuration not stated)
7,-40.6 °C,CC1CC(=O)C(C)(C)C1 (configuration not stated)
8,151 to 153 °C,COc1ccccc1NC(=S)NN
9,127 °C,Cc1cc2c(o1)-c1c(oc3ccc(Br)cc13)CCC2(C)c1ccccc1 (configuration not stated)
10,136 °C,CNC(=O)OCc1cccc(COC(=O)NC)n1
11,179 °C,COc1ccc(-c2ccc(S(=O)(=O)NC(C)C(=O)O)cc2)cc1 (configuration not stated)
12,146 °C,COC(=O)C1(S(=O)(=O)c2ccc(C)cc2)CCCCC1
13,190 to 191 °C,Cc1noc(-c2ccccc2)c1C(=O)O
14,91 °C,CCOC(=O)N1C(=O)c2ccccc2C1=O
15,104 °C,COc1cc(CCC(=O)O)cc(OC)c1OC
16,124 °C,COc1ccc(C(=O)OC2Cc3ccccc32)cc1 (configuration not stated)
17,151 °C,CCc1oc2ccccc2c1C(=O)c1cc(Br)c(O)c(Br)c1
18,111 to 112 °C,Nc1ccccc1NC1CCN(Cc2ccccc2)CC1
19,17 °C,c1ccc2c(c1)CNC2
20,116 °C,CCCCCOC(=O)Nc1nc(=O)n(C2OC(C)C(O)C2O)cc1F (configuration not stated)
21,82 °C,CC1CCC(C)(C(=O)COC(=O)c2ccccc2)C1(C)C (configuration not stated)
22,255 to 258 °C,Nc1ccc(CC(N)C(=O)O)cc1 (racemic)

row,melting point,SMILES
1,58 to 59 °C,NCc1cc2ccccc2s1
2,111 °C,CC(=O)c1cc2cc(Br)ccc2o1
3,118 to 122 °C,Nc1ccccc1S(=O)(=O)c1ccccc1
4,104 °C,N#CC(C(N)=O)=C(SCc1ccccc1)SCc1ccccc1
5,218 °C,C=C(C(=O)O)C1CCC2C(=CCC3C(C)(C)C(O)CCC23C)C1 (configuration not stated)
6,33.5 °C,O=C(OCCOCCOC(=O)c1ccccc1)c1ccccc1
7,122 to 129 °C,Cc1ccc(S(=O)(=O)OCC2CCC(=O)N2)cc1 (configuration not stated)
8,167 °C,Cc1cc(C)c(C)c(S(=O)(=O)NCC(=O)O)c1C
9,171 °C,O=C(C1=NOC2C(=O)N(c3ccc(Cl)cc3)C(=O)C12)c1ccco1 (configuration not stated)
10,79 °C,CC(=O)CCc1oc2ccc(Br)cc2c1-c1ccc(C)o1
11,177 °C,CCOc1ccc(-c2nnc3n2NC(c2ccccc2O)S3)cc1 (configuration not stated)
12,270 to 272 °C,O=C(O)c1ccc(C(=O)O)c(OC(F)(F)F)c1
13,126 °C,CS(=O)(=O)Nc1ccc2nn(C3CCCC3)nc2c1
14,150 to 152 °C,CCCCOc1cc(C(N)=O)ccc1OC
15,222 to 223 °C,Cc1ccc2sc(C(=O)O)cc2c1
16,178 to 180 °C,COC(=O)c1ccccc1-n1c(SC)nc2ccccc2c1=O
17,139 °C,CS(=O)(=O)c1ccccc1C(=O)O
18,209 to 211 °C,CCOC(=O)Cn1cc(Cl)c(=O)c(Cl)c1
19,51 to 52 °C,CC1(C)C2CCC1(C)C(O)/C2=C\CC(=O)O (configuration not stated)
20,35 to 44 °C,c1ccc(C2Cc3ccccc32)nc1 (configuration not stated)
21,132 °C,N#C/C(=C\c1ccc(Cl)cc1Cl)c1nc(-c2cccc3ccccc23)cs1
22,255 to 257 °C,Cc1nnc(S)n1-c1ccc(OCc2ccccc2)cc1

row,melting point,SMILES
1,143 °C,COc1ccc(O)c(C(=O)O)c1
2,161 to 162 °C,CC(=O)Nc1c(C(=O)Cc2c(C)cc(C)cc2C)oc2ccccc12
3,94 to 96 °C,CC(=O)CCc1c[nH]c2ccccc12
4,95.5 to 97.5 °C,CC1(C)OC2COC3(CO)OC(C)(C)OC3C2O1 (configuration not stated)
5,142 °C,O=C(C=Cc1ccccc1)c1cccc(C(=O)C=Cc2ccccc2)c1
6,125 °C,COc1c(Br)ccc(C)c1C(=O)O
7,211 °C,CCOC(=O)c1nn(-c2ccc(C)cc2)c(C)c1C(=O)C1=NOC2C(=O)N(c3ccc(F)cc3)C(=O)C12 (configuration not stated)
8,147 to 151 °C,COc1ccc(-c2ocnc2C(=O)O)cc1
9,186 to 188 °C,c1ccc(-c2nnc(-c3ccccn3)c(-c3ccccn3)n2)nc1
10,209 to 212 °C,COc1cccc(C=Nn2c(C)cc(C)c(C#N)c2=O)c1O
11,134 to 136 °C,CC(=O)Nc1ccc(I)cc1C(F)(F)F
12,206 to 207 °C,C=CCn1c(=S)[nH]c2ccccc2c1=O
13,124 to 126 °C,Cc1oc(C(=O)NN)nc1-c1ccccc1
14,134 °C,O=C1C(c2ccccc2)C(c2ccccc2)N1c1ccccc1 (configuration not stated)
15,168 °C,CC(C)(C)CC(=O)OCC(=O)C1(O)CCC2C3CCC4=CC(=O)CCC4(C)C3C(O)CC21C (configuration not stated)
16,41 °C,c1ccc(C(CCN2CCCCC2)c2ccccc2)cc1
17,152 °C,O=C(Nc1ccccc1SC(=O)c1ccccc1)c1ccccc1
18,178 °C,CC1(C)C2CCC1(C)C(NC(=S)Nc1ccccc1)C2NC(=S)Nc1ccccc1 (configuration not stated)
19,109 to 110 °C,Cc1noc(-c2ccccc2)c1CO
20,272 to 274 °C,CCOC(=O)C12C(c3cc(Br)ccc3OP1(=O)OCC)C1(C(=O)OCC)C2c2cc(Br)ccc2OP1(=O)OCC (configuration not stated)
